Patent US20180064646A1, “METHOD AND DEVICE FOR ADMINISTERING XINAFOATE SALT OF N4-(2,2-DIFLUORO-4H-BENZO[1,4]OXAZIN-3-ONE)-6-YL]-5-FLUORO-N2-[3-(METHYLAMINOCARBONYLMETHYLENEOXY)PHENYL]2,4-PYRIMIDINEDIAMINE” (Rigel Pharmaceutical, Inc., priority 2011, published 2018)
Counter-ions that a name gives are not always drawn.

Columns and labels:
Assay type in all cases: physicochemical
[1] = Solvation/hydration assessed by thermogravimetric analysis (TGA); solid form screening; conditions: for hydration or solvation: TGA, ambient to 300° C. at 20° C./min
Method: (§1) Hygroscopicity was assessed using dynamic vapor sorption equipment (Surface Measurement Systems Ltd, model DVS-1). The analysis was conducted at 30° C. with a nitrogen gas flow of 200 cc/min. Water sorption and desorption were determined in the range 0 to 90% relative humidity (RH) using 15% RH intervals. Exposure was for a minimum of 2 hours at each humidity, or until the rate of weight change was less than 0.0003%/minute (averaged over 10 minutes). Sample weight was 12.6 mg. The sample was weighed using a CAHN D-200, seven place digital recording balance, which is an integral part of the equipment. […] Solvation/Hydration was assessed by thermogravimetric analysis (TGA) using a TA Instruments Hi-Res TGA 2950 instrument measuring the weight loss of an 8.8 mg sample in an open platinum pan. The sample was heated at 20° C./min from ambient to 300° C. utilizing a nitrogen furnace purge gas.

[2] = Hygroscopicity by dynamic vapor sorption (DVS)
Method: as §1

[3] = Solid state stability and excipient compatibility on storage (drug content and impurities); conditions: for % main band remaining versus control: API
Method: In order to test for solid state stability and excipient compatibility, a sample of the xinafoate salt was micronized by jet milling (particle size: D10=0.24 μm; D50=1.15 D90=4.29 μm) and the resulting powder was blended at a 1:100 weight ratio with lactose monohydrate (Respitose grade SV008). Samples were stored for 12 weeks at 25° C./60% relative humidity and 40° C./75% relative humidity and assayed for remaining drug content and impurities at 4, 8 and 12 weeks. A control sample was stored at 5° C./0% humidity.

Compound | hydration or solvation [1] | solvate formation ([1]; nine solvents tested) | hygroscopicity ([2]; DVS, 0 to 90% RH, 30° C.) | water sorption ([2]; at 90% RH, 30° C., DVS, unmicronized sample) [%] | water sorption ([2]; at 90% relative humidity, following micronization using jet milling) [%] | solid form after micronization ([2]; following micronization using jet milling) | time for which stable ([3]; 25° C./60% relative humidity) | time for which stable ([3]; 40° C./75% relative humidity) | % main band remaining versus control ([3]; 25° C./60% RH, 4 weeks, control 5° C./0% humidity) [%] | % main band remaining versus control ([3]; 25° C./60% RH, 8 weeks) [%] | % main band remaining versus control ([3]; 25° C./60% RH, 12 weeks) [%] | % main band remaining versus control ([3]; 40° C./75% RH, 4 weeks) [%] | % main band remaining versus control ([3]; 40° C./75% RH, 8 weeks) [%] | % main band remaining versus control ([3]; 40° C./75% RH, 12 weeks) [%]
CNC(=O)COc1cccc(Nc2ncc(F)c(Nc3ccc4c(c3)NC(=O)C(F)(F)O4)n2)c1 [free base, N4-[(2,2-difluoro-4H-benzo[1,4]oxazin-3-one)-6-yl]-5-fluoro-N2-[3-(methylaminocarbonylmethyleneoxy)phenyl]-2,4-pyrimidinediamine] | hydrates to form a hemihydrate | formed a different solvated form in each of nine solvents tested | – | – | – | – | – | – | – | – | – | – | – | –
CNC(=O)COc1cccc(Nc2ncc(F)c(Nc3ccc4c(c3)NC(=O)C(F)(F)O4)n2)c1 [xinafoate salt, N4-[(2,2-difluoro-4H-benzo[1,4]oxazin-3-one)-6-yl]-5-fluoro-N2-[3-(methylaminocarbonylmethyleneoxy)phenyl]-2,4-pyrimidinediamine] | does not show any hydration or solvation | – | essentially non-hygroscopic | 0.6 | 0.9 | no change in solid form | at least two years | at least six months | 100.2 | 99.9 | 100.1 | 100.4 | 100.0 | 100.0
